Laboratory results: the NIST ThermoML archive (doi:10.1021/acs.jced.7b00543)

Settings: Capillary rise

C=C(F)C(F)(F)F [2,3,3,3-tetrafluoro-1-propene]
Settings | surface tension liquid-gas [mN/m]
242.21 K | 13.25
244.21 K | 12.98
245.22 K | 12.84
248.08 K | 12.45
250.1 K | 12.18
252.25 K | 11.9
255.34 K | 11.49
258.24 K | 11.11
260.34 K | 10.83
263.12 K | 10.47
265.13 K | 10.21
268.11 K | 9.828
270.15 K | 9.568
275.55 K | 8.889
278.58 K | 8.512
280.24 K | 8.307
283.24 K | 7.94
285.32 K | 7.688
288 K | 7.364
290.08 K | 7.117
296.04 K | 6.415
300.01 K | 5.956
305.09 K | 5.382
310.09 K | 4.829
312.28 K | 4.591
315.2 K | 4.279
317.48 K | 4.038
320.48 K | 3.726
322.47 K | 3.523
325.1 K | 3.259
327.3 K | 3.041
330.27 K | 2.752
332.21 K | 2.568
335.26 K | 2.284
337.53 K | 2.077
340.11 K | 1.85
342.54 K | 1.64
345.13 K | 1.425
347.36 K | 1.244
350.21 K | 1.023
355.63 K | 0.637
360.23 K | 0.349
362.34 K | 0.234
365 K | 0.108

CC(C)C [2-methylpropane]
Settings | surface tension liquid-gas [mN/m]
280.34 K | 11.99
283.22 K | 11.79
285.45 K | 11.48
288.02 K | 11.17
290.14 K | 10.99
293.53 K | 10.6
296.42 K | 10.23
299.37 K | 9.829
302.08 K | 9.595
305.41 K | 9.223
307.43 K | 9.03
310.75 K | 8.607
313.15 K | 8.314
315.62 K | 7.999
318.22 K | 7.683
320.46 K | 7.584
323.41 K | 7.172
325.44 K | 7.013
327.83 K | 6.731
329.85 K | 6.538
330.18 K | 6.476
332.56 K | 6.214
335.58 K | 5.925
338.1 K | 5.686
340.42 K | 5.479
342.74 K | 5.22
345.39 K | 4.972
347.26 K | 4.847
350.12 K | 4.526

F/C=C/C(F)(F)F [trans-1,3,3,3-tetrafluoropropene]
Settings | surface tension liquid-gas [mN/m]
242.01 K | 15.66
245.14 K | 15.23
248.08 K | 14.82
250.11 K | 14.54
255.11 K | 13.85
260.07 K | 13.18
265.12 K | 12.51
268.98 K | 12
271.51 K | 11.67
275.65 K | 11.13
280.14 K | 10.55
285.03 K | 9.923
288.19 K | 9.525
290.19 K | 9.275
293.1 K | 8.913
295.07 K | 8.67
300.07 K | 8.059
305.06 K | 7.46
310.06 K | 6.873
315.05 K | 6.304
320.05 K | 5.724
325.03 K | 5.171
330.05 K | 4.621
335.09 K | 4.087
340.08 K | 3.565
345.07 K | 3.094
350.07 K | 2.589
355.03 K | 2.132
360.08 K | 1.605
365.09 K | 1.171
370.07 K | 0.761
375.14 K | 0.395
380.09 K | 0.109
